Results on four compounds are retold here after US20070134744A1, “Epothilone resistant cell lines” (priority 2000, published 2007).

Entries after “also recorded” stand apart in the source; their conditions may differ.

One test has as its system EA10 cells. Briefly: MTS growth inhibition assay. In kind it is cell-based. The following applies: MTS, 72 hours drug, Table 1. As to the method:
(§1) Growth inhibition may be analyzed using conventional methods, for example a MTS assay (PROMEGA, Wis.) may be used. In this assay approximately 4000 cells per well are seeded in 96 well plates in MEM supplemented with 10% fetal calf serum and incubated at 37° C. in 5.0% CO2. After 24 hours, dilutions of drug (concentration range used is between 1 nM and 1000 nM) are added and cells are allowed to incubate with drug for an additional 72 hours. The MTS reagent mixed with PMS (MTS:PMS 20:1 according to manufacturer's instructions) is then added and absorbance quantitated using a Thermomax microplate reader system according to conventional methods (Molecular Devices, Sunnyvale, Calif.). […] Six assays per drug per plate are performed.
(§2) Thus, at least two potential mechanisms of epothilone A resistance may exist—a lower resistance mechanism that is cross-resistant to TAXOL® and a higher, epothilone A specific resistance mechanism.

For a further test, the system named is EA150 cells. Briefly: MTS growth inhibition assay. In kind it is cell-based. The following applies: for IC50: MTS, 72 hours drug, Table 1. As to the method: as §1, §2
Background: Formazan colour is commonly taken as a measure of viable cells.

Another test relates to EA60 cells. Briefly: MTS growth inhibition assay. In kind it is cell-based. The following applies: MTS, 72 hours drug, Table 1. As for the experimental part: as §1, §2
The subject of the next test is MDA-MB-435 cells. Briefly: MTS growth inhibition assay. It counts as cell-based. As to the method: as §1, §2
Test [1] relates to EA20 cells. Briefly: MTS growth inhibition assay. In kind it is cell-based. Conditions: MTS, 72 hours drug, Table 1. As for the experimental part: as §1, §2
A further test relates to 297/C5/0 cells. In kind it is cell-based, human. The following applies: for RF (resistance factor: IC50 resistant cell line / IC50 parental KB-31): 297/C5/0 (EpoA selected), 72 hrs, average of three experiments; for resistance profile in words: 297/C5/0 vs parental KB-31. As for the experimental part: (§3) Anti-proliferative assays are performed basically as described (Meyer et al., Int. J. Cancer 43:851 (1989)). Briefly, cells are seeded at 1.5×10^3 cells/well into 96-well microtiter plates and allowed to adhere by incubation overnight. Compounds are added in serial dilutions on day 1. The plates are then incubated for an additional 3 days, after which the cells are fixed with 3.3% v/v glutaraldehyde, washed with water and stained with 0.05% w/v methylene blue according to conventional methods. After washing, the dye is eluted with 3% HCl and the optical density measured at 665 nm with a SpectraMax Plus (Molecular Devices, Sunnyvale, Calif.) according to manufacturers instructions. IC50 values are determined by mathematical curve-fitting using the SoftPro2.6.1 program (Molecular Devices, Sunnyvale, Calif.) using the formula (OD treated−OD start)/(OD control−OD start)×100. […] IC50 determinations with the cell line 298/D4/40 are performed in the presence of 40 nM epothilone A.
(§4) Data in Table 4 are gathered according to the following methods: Cells (1×10^3) are seeded in 96-well plates and allowed to adhere for 24 hrs. Compounds are then added as two-fold serial dilutions and incubation continued for an additional 72 hrs. Cell numbers at the beginning and at the end of the experiment are estimated by methylene blue staining of cellular protein mass according to conventional methods. The net mass increase of vehicle-treated cells is set as 100% growth. The IC50 is determined as the drug concentration that leads to half-maximal growth inhibition compared to the control. The resistance factor (RF) for a particular drug is calculated by dividing the IC50 determined on the resistant cell line by that determined on the parental KB-31 cells. Data are presented as average±standard deviation (SD) of three separate experiments, except na=not applicable (n<3). Colchicine-selected KB-8511 cells overexpressing P-glycoprotein served as a reference for the classical multi-drug-resistant phenotype.

The test system of test [2] is 298/D4/40 cells. It counts as cell-based, human. Conditions: for RF (resistance factor: IC50 resistant cell line / IC50 parental KB-31): 298/D4/40 (EpoA selected), 72 hrs, in the presence of 40 nM epothilone A; for resistance profile in words: 298/D4/40 vs parental KB-31. As for the experimental part: as §3, §4
The subject of a further test is 315/sc5.9 cells. It counts as cell-based, human. Conditions: for RF (resistance factor: IC50 resistant cell line / IC50 parental KB-31): 315/sc5.9 (EpoB selected), 72 hrs, average of three experiments. As for the experimental part: as §3, §4
The test system of another test is EA40 cells. Briefly: MTS growth inhibition assay. It counts as cell-based. Conditions: for IC50: EA40 cells. As to the method: as §1, with “performed. […]” for “performed.”
(§5) As such, epothilone resistant cells would have some degree of cross-resistance to other P-gp substrates that could be reversed by P-gp inhibitors. To investigate this possibility, the cytotoxicity of the P-gp substrates, vincristine, doxorubicine and vinblastine is determined against epothilone A resistant cells using the MTS assay. […] When EA20 and resistant MDA/T0.3 cells are incubated with TAXOL® or epothilone A in the presence of [3′-Desoxy-3′-oxo-MeBmt]^1-[Val]^2-Ciclosporin (PSC-833; a P-gp inhibitor which is disclosed in U.S. Pat. No. 5,525,590), the resistance of MDA/T0.3 cells to TAXOL® is reversed but no effect on the resistance of EA20 to epothilone A is observed.

In test [3] the test system is 298/D4/40 cells. Briefly: Support of growth of epothilone A-dependent cells. It counts as cell-based, human. Conditions: replacing epothilone A. As to the method:
The epothilone resistant cell lines, EpoA320-80C, EpoA320/ND, 298/D4/40, 297/C5/0 and 315/sc5.9 are generated as disclosed above. […] A subclone, 298/D4/40, is adapted to grow in the presence of 40 nM epothilone A administered twice weekly (i.e. at every medium change). […] Furthermore, when 298/D4/40 cells are deprived of epothilone A, they growth arrest in the G2/M phase of the cell cycle and eventually die by apoptosis. […] Thus, this cell line could be employed in a drug screen, in which compounds with a potential microtubule-stabilizing mechanism could be identified by virtue of supporting the growth of epothilone A-deprived 298/D4/40 cells (see below). Nevertheless, upon prolonged incubation in the absence of epothilone A, we are able to isolate a subline that is still partially resistant to epothilone A, but has lost the drug-dependent phenotype of 298/D4/40, likely due to a cornpensating mutation. A subclone of this cell line, 297/C5/0, is used for further analyses.
Potential hits would be those that support the growth of 298/D4/40 cells similar to epothilone A (or paclitaxel) that could be included as a positive control in this assay.

Test [4] concerns KB-8511 cells. It counts as cell-based, human. The following applies: for RF (resistance factor: IC50 resistant cell line / IC50 parental KB-31): KB-8511 (Colch selected), 72 hrs, average of three experiments; for resistance profile in words: KB-8511 vs parental KB-31. As to the method:
as §4

Test [5] relates to MDA/T0.3 cells. Briefly: Reversal of resistance by P-gp inhibitor (MTS assay). It counts as cell-based. Conditions: MDA/T0.3 cells incubated with TAXOL in the presence of PSC-833. As for the experimental part: as §1
(§6) As such, epothilone resistant cells would have some degree of cross-resistance to other P-gp substrates that could be reversed by P-gp inhibitors. To investigate this possibility, the cytotoxicity of the P-gp substrates, vincristine, doxorubicine and vinblastine is determined against epothilone A resistant cells using the MTS assay. […]

Test [6] deals with EA20 cells. The description is as above. It counts as cell-based. Conditions: EA20 cells incubated with epothilone A in the presence of PSC-833. As for the experimental part:
as §1, §6

The subject of test [7] is MDA/T0.3 cells. Briefly: MTS growth inhibition assay. The following applies: MDA/T0.3 cells, P-gp substrates; Table 2; read-out: IC50. It counts as cell-based. As to the method: Growth inhibition may be analyzed using conventional methods, for example a MTS assay (PROMEGA, Wis.) may be used. In this assay approximately 4000 cells per well are seeded in 96 well plates in MEM supplemented with 10% fetal calf serum and incubated at 37° C. in 5.0% CO2. […] The MTS reagent mixed with PMS (MTS:PMS 20:1 according to manufacturer's instructions) is then added and absorbance quantitated using a Thermomax microplate reader system according to conventional methods (Molecular Devices, Sunnyvale, Calif.). […] Six assays per drug per plate are performed.
as §5
MDA/T0.3 is a clonal subline of MDA-MB-435 cells selected by increasing exposure of MDA-MB-435 cells to TAXOL®. MDA/T0.3 cells express high levels of P-glycoprotein and are resistant to a variety of chemically and functionally unrelated compounds. MDA/T0.3 cells could be sensitized to a variety of cytotoxic agents by treatment with the P-glycoprotein reversing agent PSC-833.

For test [8], the system named is KB-8511 cells. Conditions: cited from earlier work.

In general, IC50 refers to the concentration that inhibits the measured activity by half.

For `C/C(=C\c1csc(C)n1)[C@@H]1C[C@@H]2O[C@]2(C)CCC[C@H](C)[C@H](O)[C@@H](C)C(=O)C(C)(C)[C@@H](O)CC(=O)O1` [Epothilone B, epothilone B], the IC50 in the test on EA10 cells was determined as 3 ± 1.4 nM; with EA150 cells, 15 ± 3.1 nM; in the test with EA60 cells it was 10 ± 4.2 nM; with MDA-MB-435 cells (MTS, 72 hours drug, Table 1), 2 ± 0.8 nM; with EA20 cells [1] it was 6 ± 2.9 nM; in the test with EA40 cells (MTS, 72 hours drug, Table 1) it was 8 ± 3.5 nM. For the same compound, the “resistance profile in words” value with EA150 cells is given as “very little resistance”; in the test with 297/C5/0 cells, “either partially or fully cross-resistant”; in the test with 298/D4/40 cells [2] it was “either partially or fully cross-resistant”; in the test with KB-8511 cells [4], “retain full activity”. Also, the “RF (resistance factor: IC50 resistant cell line / IC50 parental KB-31)” value in the test on 297/C5/0 cells is given as 7.7; in the test on 298/D4/40 cells [2], 9.2; in the test with 315/sc5.9 cells, 3.1; in the test on KB-8511 cells [4], 0.9. Moreover, the resistance in the test on 315/sc5.9 cells (315/sc5.9 vs parental KB-31) is on record as 3.1 fold. Further, the “support of growth of epothilone A-dependent cell line” value in the test with 298/D4/40 cells [3] is on record as “able to substitute for epothilone A”.

On to `C/C=C/C[C@@H](C)C(=O)[C@H]1C(=O)N[C@@H](C(C)C)C(=O)N(C)CC(=O)N(C)[C@@H](CC(C)C)C(=O)N[C@@H](C(C)C)C(=O)N(C)[C@@H](CC(C)C)C(=O)N[C@@H](C)C(=O)N[C@H](C)C(=O)N(C)[C@@H](CC(C)C)C(=O)N(C)[C@@H](CC(C)C)C(=O)N(C)[C@@H](C(C)C)C(=O)N1C` [PSC-833, [3′-Desoxy-3′-oxo-MeBmt]^1-[Val]^2-Ciclosporin], for which the “effect on resistance to TAXOL” value in the test on MDA/T0.3 cells [5] is given as “reversed”. In addition, the “effect on resistance to epothilone A” value in the test with EA20 cells [6] is “no effect”.

For the compound `CC(=O)O[C@H]1C(=O)[C@@]2(C)[C@H]([C@H](OC(=O)c3ccccc3)[C@]3(O)C[C@H](OC(=O)[C@H](O)[C@@H](NC(=O)c4ccccc4)c4ccccc4)C(C)=C1C3(C)C)[C@]1(OC(C)=O)CO[C@@H]1C[C@@H]2O` [Paclitaxel, paclitaxel], the IC50 came to 13 ± 3.1 nM in the test on EA10 cells; 34 ± 2.6 nM in the test with EA150 cells; 27 ± 3.1 nM in the test on EA60 cells; 7.5 ± 3 nM in the test on MDA-MB-435 cells (Homo sapiens, MTS, 72 hours drug, Table 1); 7.5 ± 3 nM in the test on MDA-MB-435 cells (Homo sapiens, P-gp substrates, Table 2); 22 ± 4 nM with EA20 cells [1]. The IC50 in the test on MDA/T0.3 cells [7] worked out at 540 ± 100 nM; in the test on EA40 cells (MTS, 72 hours drug, Table 1) it was 23 ± 4 nM; with EA40 cells (P-gp substrates, Table 2), 21 ± 3 nM. The “RF (resistance factor: IC50 resistant cell line / IC50 parental KB-31)” value with 297/C5/0 cells was 98.3; with 298/D4/40 cells [2], 200.1; in the test with 315/sc5.9 cells it was 1.4; in the test on KB-8511 cells [4], 209.6. The “resistance profile in words” value is listed as “either partially or fully cross-resistant; also recorded: full cross-resistance” in the test on 297/C5/0 cells; “either partially or fully cross-resistant; also recorded: full cross-resistance” with 298/D4/40 cells [2]; “marginal cross-resistance” in the test on 315/sc5.9 cells (315/sc5.9 vs parental KB-31); “equally resistant” in the test on EA40 cells (EA40 vs MDA-MB-435 / EA150); “resistant” in the test with KB-8511 cells [4]. For the same compound, the “support of growth of epothilone A-dependent cell line” value in the test with 298/D4/40 cells [3] is given as “able to substitute for epothilone A”.

In the case of `COc1cc2c(c(OC)c1OC)-c1ccc(OC)c(=O)cc1[C@@H](NC(C)=O)CC2` [colchicine], the “relative resistance compared to KB-31 cells” value in the test on KB-8511 cells [8] is about 40 fold.
